According to PubChem BioAssay (NCI):
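Values below derive from 48-hour exposures of cells grown in 96-well plates, with endpoints linearly interpolated between the two concentrations bracketing the appropriate inhibition level. TGI: concentration producing complete growth inhibition.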

Columns and labels:
Assay in all cases: NCI anticancer screen, dose series, 48 h
SN12C renal = tested on: SN12C renal
HCT-116 colon = tested on: HCT-116 colon
OVCAR-5 ovarian = tested on: OVCAR-5 ovarian
M14 melanoma = tested on: M14 melanoma
OVCAR-3 ovarian = tested on: OVCAR-3 ovarian
SK-MEL-28 melanoma = tested on: SK-MEL-28 melanoma
SW-620 colon = tested on: SW-620 colon
RXF 393 renal = tested on: RXF 393 renal
SF-539 CNS = tested on: SF-539 CNS
SF-295 CNS = tested on: SF-295 CNS
KM12 colon = tested on: KM12 colon
SF-268 CNS = tested on: SF-268 CNS
MDA-MB-435 = tested on: MDA-MB-435
A549 NSCLC = tested on: A549 NSCLC
COLO 205 colon = tested on: COLO 205 colon
OVCAR-4 ovarian = tested on: OVCAR-4 ovarian
CCRF-CEM leukemia = tested on: CCRF-CEM leukemia
IGROV1 ovarian = tested on: IGROV1 ovarian
BT-549 breast = tested on: BT-549 breast
SK-MEL-5 melanoma = tested on: SK-MEL-5 melanoma
PC-3 prostate = tested on: PC-3 prostate
HOP-92 NSCLC = tested on: HOP-92 NSCLC
NCI/ADR-RES ovarian = tested on: NCI/ADR-RES ovarian
UACC-257 melanoma = tested on: UACC-257 melanoma
HCT-15 colon = tested on: HCT-15 colon
MOLT-4 leukemia = tested on: MOLT-4 leukemia
MDA-MB-231 breast = tested on: MDA-MB-231 breast
CAKI-1 renal = tested on: CAKI-1 renal
OVCAR-8 ovarian = tested on: OVCAR-8 ovarian
NCI-H460 lung = tested on: NCI-H460 lung
SNB-75 CNS = tested on: SNB-75 CNS
NCI-H522 lung = tested on: NCI-H522 lung
U251 CNS = tested on: U251 CNS
MDA-N = tested on: MDA-N
A498 renal = tested on: A498 renal
HOP-62 NSCLC = tested on: HOP-62 NSCLC
SK-MEL-2 melanoma = tested on: SK-MEL-2 melanoma
LOX IMVI melanoma = tested on: LOX IMVI melanoma
T-47D breast = tested on: T-47D breast
NCI-H226 lung = tested on: NCI-H226 lung
786-0 renal = tested on: 786-0 renal
NCI-H23 lung = tested on: NCI-H23 lung
HL-60(TB) leukemia = tested on: HL-60(TB) leukemia
SR leukemia = tested on: SR leukemia
UO-31 renal = tested on: UO-31 renal
EKVX NSCLC = tested on: EKVX NSCLC
K-562 leukemia = tested on: K-562 leukemia
TK-10 renal = tested on: TK-10 renal
ACHN renal = tested on: ACHN renal
DU-145 prostate = tested on: DU-145 prostate
HT29 colon = tested on: HT29 colon
SNB-19 CNS = tested on: SNB-19 CNS
UACC-62 melanoma = tested on: UACC-62 melanoma
MCF7 breast = tested on: MCF7 breast
SK-OV-3 ovarian = tested on: SK-OV-3 ovarian
HCC-2998 colon = tested on: HCC-2998 colon
HS 578T breast = tested on: HS 578T breast
RPMI-8226 leukemia = tested on: RPMI-8226 leukemia
MALME-3M melanoma = tested on: MALME-3M melanoma

CCCCN(CCCC)C1(c2cc3ccccc3s2)CCCCC1
TGI (SN12C renal): 36.6 µM | TGI (HCT-116 colon): 23.7 µM | TGI (OVCAR-5 ovarian): 32.9 µM | TGI (M14 melanoma): 30.6 µM | TGI (OVCAR-3 ovarian): 29.9 µM | TGI (SK-MEL-28 melanoma): 34.1 µM | TGI (SW-620 colon): 33.8 µM | TGI (RXF 393 renal): 30.8 µM | TGI (SF-539 CNS): 34.9 µM | TGI (SF-295 CNS): 26.8 µM | TGI (KM12 colon): 30.4 µM | TGI (SF-268 CNS): 34 µM | TGI (MDA-MB-435): 27.3 µM | TGI (A549 NSCLC): 34 µM | TGI (COLO 205 colon): 31.3 µM | TGI (OVCAR-4 ovarian): 30 µM | TGI (CCRF-CEM leukemia): 28.7 µM | TGI (IGROV1 ovarian): 31.2 µM | TGI (BT-549 breast): 35.1 µM | TGI (SK-MEL-5 melanoma): 40.7 µM | TGI (PC-3 prostate): 34.1 µM | TGI (HOP-92 NSCLC): 25.5 µM | TGI (NCI/ADR-RES ovarian): 34 µM | TGI (UACC-257 melanoma): 34 µM | TGI (HCT-15 colon): 30.8 µM | TGI (MOLT-4 leukemia): 28.8 µM | TGI (MDA-MB-231 breast): 30.2 µM | TGI (CAKI-1 renal): 32.8 µM | TGI (OVCAR-8 ovarian): 34.4 µM | TGI (NCI-H460 lung): 27.9 µM | TGI (SNB-75 CNS): 30.5 µM | TGI (NCI-H522 lung): 25.6 µM | TGI (U251 CNS): 31.4 µM | TGI (MDA-N): 31.5 µM | TGI (A498 renal): 34.1 µM | TGI (HOP-62 NSCLC): 29.2 µM | TGI (SK-MEL-2 melanoma): 34.5 µM | TGI (LOX IMVI melanoma): 28.3 µM | TGI (T-47D breast): 34.7 µM | TGI (NCI-H226 lung): 33.9 µM | TGI (786-0 renal): 27.3 µM | TGI (NCI-H23 lung): 29.5 µM | TGI (HL-60(TB) leukemia): 34.3 µM | TGI (SR leukemia): 33.5 µM | TGI (UO-31 renal): 32.9 µM | TGI (EKVX NSCLC): 36.6 µM | TGI (K-562 leukemia): 32.9 µM | TGI (TK-10 renal): 31.2 µM | TGI (ACHN renal): 30.3 µM | TGI (DU-145 prostate): 30 µM | TGI (HT29 colon): 27.5 µM | TGI (SNB-19 CNS): 33.8 µM | TGI (UACC-62 melanoma): 31.1 µM | TGI (MCF7 breast): 32.1 µM | TGI (SK-OV-3 ovarian): 36.3 µM | TGI (HCC-2998 colon): 27.4 µM

COc1ccc(NS(=O)(=O)c2ccc3ncn(NS(=O)(=O)c4ccc(I)cc4)c(=O)c3c2)cc1
TGI (SN12C renal): > 100 µM | TGI (HCT-116 colon): > 100 µM | TGI (HS 578T breast): > 100 µM | TGI (OVCAR-5 ovarian): > 100 µM | TGI (M14 melanoma): > 100 µM | TGI (OVCAR-3 ovarian): > 100 µM | TGI (SK-MEL-28 melanoma): > 100 µM | TGI (SW-620 colon): > 100 µM | TGI (RXF 393 renal): > 100 µM | TGI (SF-539 CNS): > 100 µM | TGI (SF-295 CNS): > 100 µM | TGI (KM12 colon): > 100 µM | TGI (SF-268 CNS): > 100 µM | TGI (MDA-MB-435): > 100 µM | TGI (A549 NSCLC): > 100 µM | TGI (COLO 205 colon): > 100 µM | TGI (OVCAR-4 ovarian): > 100 µM | TGI (CCRF-CEM leukemia): > 100 µM | TGI (IGROV1 ovarian): > 100 µM | TGI (SK-MEL-5 melanoma): > 100 µM | TGI (RPMI-8226 leukemia): > 100 µM | TGI (PC-3 prostate): > 100 µM | TGI (HOP-92 NSCLC): > 100 µM | TGI (NCI/ADR-RES ovarian): > 100 µM | TGI (UACC-257 melanoma): > 100 µM | TGI (HCT-15 colon): > 100 µM | TGI (MOLT-4 leukemia): > 100 µM | TGI (MDA-MB-231 breast): > 100 µM | TGI (CAKI-1 renal): > 100 µM | TGI (OVCAR-8 ovarian): > 100 µM | TGI (NCI-H460 lung): > 100 µM | TGI (SNB-75 CNS): > 100 µM | TGI (NCI-H522 lung): > 100 µM | TGI (U251 CNS): > 100 µM | TGI (MDA-N): > 100 µM | TGI (A498 renal): > 100 µM | TGI (HOP-62 NSCLC): > 100 µM | TGI (SK-MEL-2 melanoma): > 100 µM | TGI (LOX IMVI melanoma): > 100 µM | TGI (T-47D breast): > 100 µM | TGI (NCI-H226 lung): > 100 µM | TGI (786-0 renal): > 100 µM | TGI (MALME-3M melanoma): > 100 µM | TGI (NCI-H23 lung): > 100 µM | TGI (HL-60(TB) leukemia): > 100 µM | TGI (SR leukemia): > 100 µM | TGI (UO-31 renal): > 100 µM | TGI (EKVX NSCLC): > 100 µM | TGI (K-562 leukemia): > 100 µM | TGI (TK-10 renal): > 100 µM | TGI (ACHN renal): > 100 µM | TGI (DU-145 prostate): > 100 µM | TGI (HT29 colon): > 100 µM | TGI (SNB-19 CNS): > 100 µM | TGI (UACC-62 melanoma): > 100 µM | TGI (MCF7 breast): > 100 µM | TGI (SK-OV-3 ovarian): > 100 µM | TGI (HCC-2998 colon): > 100 µM
